Read-outs that look alike come from different tables or passages of the source.
Key:
[1] = assay type: physicochemical; conditions: for crystal growth in the fertilizer solutions tested: review of table 2
Source text: Crystal formation in a suspension concentrate is a complex phenomenon. It is believed that if the solubility of the suspended solid chemical is high in the medium, the suspension concentrate is prone to form crystals of the suspended solid chemical in storage. […] The concentrations of the solid pesticides used in this example were low (at a typical ready-to-apply concentration range). If a solid pesticide forms crystals in such a low concentration, it is not suitable for a ready-to-apply pesticide suspension and mostly likely will not be suitable for a more concentrated suspension in fertilizer. […] By “not suitable” is meant that although it may work to some extent, it is not a good candidate for the pesticide SC.
Samples were prepared by adding the components followed by hand-shaking.

[2] = Quick screening of crystal growth potential in fertilizer concentrates and water, solid pesticides containing a carboxylic acid group (Example 2); assay type: physicochemical; conditions: for suitability for suspension in fertilizer solutions: review of table 3
Method: Samples were prepared by adding the components followed by hand-shaking. Samples were placed at 0° C. and observation was made after 1 day, unless otherwise specified.

[3] = Study of additional surfactants in 10-34-0, 27-4-0 and diluted 10-34-0 fertilizers (Example 8); assay type: physicochemical
[4] = 1 wt % powder pesticide in 99 wt % 10-34-0, no wetting agent
[5] = 1 wt % powder pesticide in 99 wt % 40% AMS, no wetting agent
[6] = 1 wt % powder pesticide in 99 wt % URAN 32, no wetting agent
[7] = 1 wt % powder pesticide in 99 wt % Water, no wetting agent
[8] = 1 wt % powder pesticide, 98 wt % 10-34-0, 1 wt % Witcolate D-510
[9] = 1 wt % powder pesticide, 98 wt % 40% AMS, 1 wt % Witcolate D-510
[10] = 1 wt % powder pesticide, 98 wt % URAN 32, 1 wt % Witcolate D-510
[11] = 1 wt % powder pesticide, 98 wt % Water, 1 wt % Witcolate D-510
[12] = powder pesticide (glyphosate acid 2, 2,4-D acid 1.3, others 1 wt %) in 10-34-0, no wetting agent
[13] = powder pesticide (glyphosate acid 2, 2,4-D acid 1.3, others 1 wt %) in 10-34-0, no wetting agent, 0° C., 1 day unless otherwise specified
[14] = powder pesticide (glyphosate acid 2, 2,4-D acid 1.3, others 1 wt %) in 40% AMS, no wetting agent, 0° C., 1 day unless otherwise specified
[15] = powder pesticide (glyphosate acid 2, 2,4-D acid 1.3, others 1 wt %) in URAN 32, no wetting agent, 0° C., 1 day unless otherwise specified
[16] = powder pesticide (glyphosate acid 2, 2,4-D acid 1.3, others 1 wt %) in Water, no wetting agent
[17] = powder pesticide (glyphosate acid 2, 2,4-D acid 1.3, others 1 wt %) in Water, no wetting agent, 0° C., 1 day unless otherwise specified
[18] = powder pesticide (glyphosate acid 2, 2,4-D acid 1.3, others 1 wt %) in 40% AMS, no wetting agent
[19] = 30 wt % powder pesticide in 70 wt % 10-34-0, no wetting agent

Compound | Comment: suitability [1, 4] | Comment: suitability [1, 5] | Comment: suitability [1, 6] | Comment: suitability [1, 7] | Comment: suitability [1, 8] | Comment: powder sank or floated [1, 9] | Comment: suitability [1, 9] | Comment: powder sank or floated [1, 10] | Comment: suitability [1, 10] | Comment: powder sank or floated [1, 11] | Comment: suitability [1, 11] | crystal growth in the fertilizer solutions tested [1] | also measured
CCCCC(C#N)(Cn1cncn1)c1ccc(Cl)cc1 (centres unmarked) [Myclobutanil] | Suitable | Suitable | Suitable | Suitable | Suitable | floated | Suitable | floated | Suitable | sank | Suitable | did not have crystal growth | Comment: powder sank or floated [1, 4]: floated; Comment: powder sank or floated [1, 5]: sank; Comment: powder sank or floated [1, 6]: floated; Comment: powder sank or floated [1, 7]: sank; Comment: powder sank or floated [1, 8]: floated
COc1c(Cl)ccc(Cl)c1C(=O)O [Dicamba acid] |  |  |  |  |  |  |  |  |  |  |  |  | Comment: suitability [2, 12]: Not suitable; Comment: crystal growth or other change [2, 13]: Crystal formed at bottom at 0 C.; Comment: crystal growth or other change [2, 14]: Oily drop formed at bottom.; Comment: dissolution [2, 15]: Dissolved; Comment: suitability [2, 16]: Not suitable; Comment: crystal growth or other change [2, 17]: Crystal formed at 0 C. and; suitability for suspension in fertilizer solutions [2]: may not be suitable
O=C(O)COc1ccc(Cl)cc1Cl [2,4-D acid] |  |  |  |  |  |  |  |  |  |  |  |  | Comment: suitability [2, 12]: particles. Not suitable; Comment: crystal growth or other change [2, 13]: Crystal growth between powder; Comment: dissolution [2, 13]: Not dissolved; Comment: powder sank or floated [2, 13]: Powder sank; Comment: suitability [2, 18]: particles. Not suitable; Comment: crystal growth or other change [2, 14]: Crystal growth between powder; Comment: dissolution [2, 14]: Not dissolved; Comment: powder sank or floated [2, 14]: Powder sank; Comment: suitability ([2]; powder pesticide (glyphosate acid 2, 2,4-D acid 1.3, others 1 wt %) in URAN 32, no wetting agent): particles. Not suitable; Comment: crystal growth or other change [2, 15]: Crystal growth between powder; Comment: dissolution [2, 15]: Not dissolved; Comment: powder sank or floated [2, 15]: Powder sank; Comment: suitability [2, 16]: particles. Not suitable; Comment: crystal growth or other change [2, 17]: Crystal growth between powder; Comment: dissolution [2, 17]: Not dissolved; Comment: powder sank or floated [2, 17]: Powder sank; suitability for suspension in fertilizer solutions [2]: may not be suitable
Sodium Laureth-2 sulfate [Witconate ES-2] |  |  |  |  |  |  |  |  |  |  |  |  | Appearance ([3]; 27-4-0 91.3, surfactant 8.7 wt): Clear
CN(C)C(=O)Nc1ccc(Cl)c(Cl)c1 [Diuron] | Suitable | Suitable | Suitable | Suitable | Suitable | sank | Suitable | sank | Suitable | sank | Suitable | did not have crystal growth | Comment: powder sank or floated [1, 4]: sank and some floated.; Comment: powder sank or floated [1, 6]: sank
Sodium C810 sulfate [Sodium C810 sulfate (40%)] |  |  |  |  |  |  |  |  |  |  |  |  | Appearance ([3]; 10-34-0 56.1, Water 30.7, surfactant 13.2 wt): Clear; Appearance ([3]; 27-4-0 81.2, surfactant 18.8 wt): Clear
CCNc1nc(Cl)nc(NC(C)C)n1 [Atrazine] | Suitable | Suitable | Suitable | Suitable | Suitable | floated | Suitable | floated | Suitable | sank | Suitable | did not have crystal growth | Comment: powder sank or floated [1, 4]: floated; Comment: powder sank or floated [1, 6]: floated; Comment: powder sank or floated [1, 8]: floated
O=[N+]([O-])NC1=NCCN1Cc1ccc(Cl)nc1 [Imidaclopid] | Suitable | Suitable | Not suitable | Suitable | Suitable | sank | Suitable |  | Not suitable | sank | Suitable | did not have crystal growth | solubility in URAN 32 [1]: high solubility; Comment: dissolution [1, 6]: Dissolved; Comment: dissolution [1, 10]: Dissolved
CCCCCCCCCCCC(=O)OCCOCCOCCOCCOCCOCCOCCOCCOCCOCCOCCOCCOCCOCCOCCOCCOCCOCCOCCOCCOCC(OCCOCCOCCOCCOCCOCCOCCOCCOCCOCCOCCOCCOCCOCCOCCOCCOCCOCCOCCOCCO)C1OCC(OCCOCCOCCOCCOCCOCCOCCOCCOCCOCCOCCOCCOCCOCCOCCOCCOCCOCCOCCOCCO)C1OCCOCCOCCOCCOCCOCCOCCOCCOCCOCCOCCOCCOCCOCCOCCOCCOCCOCCOCCOCCO (centres unmarked) [Tween 20, Polysorbate-20] |  |  |  |  |  |  |  |  |  |  |  |  | Appearance ([3]; 27-4-0 99.4, surfactant 0.6 wt): Clear
C810-3EO sulfate [C810-3EO sulfate (40%)] |  |  |  |  |  |  |  |  |  |  |  |  | Appearance ([3]; 27-4-0 89.4, surfactant 10.6 wt): Clear
O=C(O)CNCP(=O)(O)O [Glyphosate acid] |  |  |  |  |  |  |  |  |  |  |  |  | Comment: dissolution [2, 19]: Powder not dissolved. Powder; Comment: suitability [2, 19]: at room temp. Not suitable; Comment: crystal growth or other change ([2]; 30 wt % powder pesticide in 70 wt % 10-34-0, no wetting agent, at room temp): Crystal growth on container wall; Comment: dissolution [2, 13]: Dissolved at room temp; Comment: suitability [2, 18]: Not suitable; Comment: dissolution [2, 14]: Dissolved; Comment: crystal growth or other change [2, 17]: Crystal growth at room temp; Comment: dissolution [2, 17]: Not dissolved; suitability for suspension in fertilizer solutions [2]: may not be suitable
Cc1c(COC(=O)[C@@H]2[C@H](/C=C(\Cl)C(F)(F)F)C2(C)C)cccc1-c1ccccc1 (racemic) [Bifenthrin] |  |  |  |  | Suitable | sank | Suitable | floated | Suitable | sank | Suitable | did not have crystal growth | Comment: powder sank or floated [1, 8]: floated

From patent US20180265423A1, “Pesticide Dispersion in Concentrated Aqueous Fertilizer Solution” (priority 2014, published 2018)
